Key:
[1] = system: TRZAS; assay: Post-emergence herbicidal effect and crop plant compatibility, greenhouse pot test; assay type: in vivo, Triticum aestivum; conditions: Triticum aestivum, 504 h, 20 g/ha, one-leaf stage, rated visually after about 3 weeks vs untreated controls, read-out: Post-emergence effect at 20 g/ha against TRZAS in %
Method in brief: (§1)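 Greenhouse pot test: weeds and crops sown in sandy loam, sprayed post-emergence at one-leaf stage (2–3 weeks after sowing) with WP or EC formulations plus 0.5% additive at 600 l/ha water, rates 20–320 g/ha. Visual rating about 3 weeks later versus untreated controls (100% = dead, 0% = as control).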

[2] = system: ZEAMX; assay: as above; assay type: in vivo, Zea mays; conditions: Zea mays, 504 h, one-leaf stage, rated visually after about 3 weeks vs untreated controls; for plant injury at 20 g/ha: read-out: Post-emergence effect at 20 g/ha against ZEAMX in %; for plant injury at 80 g/ha: read-out: Post-emergence effect at 80 g/ha against ZEAMX in %; for plant injury at 320 g/ha: read-out: Post-emergence effect at 320 g/ha against ZEAMX in %
Method in brief: as §1

[3] = system: BRSNW; assay type: in vivo, Brassica napus; conditions: one-leaf stage, rated visually after about 3 weeks vs untreated controls
Source text: (§2) • ALOMY: Alopecurus myosuroides SETVI: Setaria viridis • AVEFA: Avena fatua POLCO: Fallopia convolvulus • AMARE: Amaranthus retroflexus ECHCG: Echinochloa crus-galli • LOLRJ: Lolium rigidum STEME: Stellaria media • VERPE: Veronica persica MATIN: Tripleurospermum inodorum • DIGSA: Digitaria sanguinalis ABUTH: Abutylon threophrasti • TRZAS: Triticum aestivum VIOTR: Viola tricolor • BRSNW: Brassica napus ZEAMX: Zea mays • PHBPU: Ipomoea purpurea GLXMA: Glycine max • ORYSA: Oryza sativa HORMU: Hordeum murinum
Seeds of monocotyledonous and dicotyledonous weeds and crop plants are placed in sandy loam in plastic or organic planting pots, covered with soil and cultivated in a greenhouse under controlled growth conditions. 2 to 3 weeks after sowing, the trial plants are treated at the one-leaf stage. The compounds of the invention, formulated in the form of wettable powders (WP) or as emulsion concentrates (EC), are then sprayed onto the green parts of the plants as aqueous suspension or emulsion with addition of 0.5% additive at a water application rate of 600 l/ha (converted). After the test plants have been kept in the greenhouse under optimum growth conditions for about 3 weeks, the activity of the preparations is rated visually in comparison to untreated controls. For example, 100% activity=the plants have died, 0% activity=like control plants.
Tables 20a to 38c below show the effects/crop compatibilities of selected compounds of the general formula (I) on various harmful plants at an application rate corresponding to 20 to 320 g/ha, which were obtained by the trial procedure specified above.

[4] = system: VIOTR; assay: Post-emergence herbicidal effect, greenhouse pot test; assay type: in vivo, Viola tricolor; conditions: Viola tricolor, 504 h, 320 g/ha, read-out: Post-emergence effect against VIOTR in %
Method in brief: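 Weeds sown in sandy loam, greenhouse-grown 2–3 weeks, then sprayed at one-leaf stage with WP or EC formulations in water plus 0.5% additive at 600 l/ha. Rates 20 to 320 g/ha. Visual rating after about 3 weeks versus untreated controls (100% = plants dead, 0% = like control).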

[5] = system: KCHSC; assay: Pre-emergence herbicidal effect, greenhouse pot test; assay type: in vivo; conditions: scored visually after about 3 weeks vs untreated controls
Source text: (§3) Seeds of monocotyledonous and dicotyledonous weed plants and crop plants are placed in plastic or organic planting pots and covered with soil. The compounds of the invention, formulated in the form of wettable powders (WP) or as emulsion concentrates (EC), are then applied to the surface of the covering soil as aqueous suspension or emulsion with addition of 0.5% additive at a water application rate equivalent to 600 l/ha. After the treatment, the pots are placed in a greenhouse and kept under good growth conditions for the trial plants. After about 3 weeks, the effect of the preparations is scored visually in comparison with untreated controls as percentages. For example, 100% activity=the plants have died, 0% activity=like control plants. Tables 1a to 19c below show the effects/crop compatibilities of selected compounds of the general formula (I) on various harmful plants at an application rate corresponding to 20 to 320 g/ha, which were obtained by the trial procedure specified above.

[6] = system: ECHCG; assay: as above; assay type: in vivo, Echinochloa crus-galli; conditions: scored visually after about 3 weeks vs untreated controls
Source text: as §3, with “plants.” for “plants. Tables 1a to 19c below show the effects/crop compatibilities of selected compounds of the general formula (I) on various harmful plants at an application rate corresponding to 20 to 320 g/ha, which were obtained by the trial procedure specified above.”
(§4) Tables 1a to 19c below show the effects/crop compatibilities of selected compounds of the general formula (I) on various harmful plants at an application rate corresponding to 20 to 320 g/ha, which were obtained by the trial procedure specified above.
as §2

[7] = system: VIOTR; assay: as above; assay type: in vivo, Viola tricolor; conditions: scored visually after about 3 weeks vs untreated controls
Source text: as §3, with “plants.” for “plants. Tables 1a to 19c below show the effects/crop compatibilities of selected compounds of the general formula (I) on various harmful plants at an application rate corresponding to 20 to 320 g/ha, which were obtained by the trial procedure specified above.”
as §4, §2

[8] = system: AVEFA; assay: as above; assay type: in vivo, Avena fatua; conditions: scored visually after about 3 weeks vs untreated controls
Source text: as §3, with “plants.” for “plants. Tables 1a to 19c below show the effects/crop compatibilities of selected compounds of the general formula (I) on various harmful plants at an application rate corresponding to 20 to 320 g/ha, which were obtained by the trial procedure specified above.”
as §4, §2

[9] = system: ZEAMX; assay: Pre-emergence herbicidal effect and crop plant compatibility, greenhouse pot test; assay type: in vivo, Zea mays; conditions: scored visually after about 3 weeks vs untreated controls
Source text: as §3, with “plants.” for “plants. Tables 1a to 19c below show the effects/crop compatibilities of selected compounds of the general formula (I) on various harmful plants at an application rate corresponding to 20 to 320 g/ha, which were obtained by the trial procedure specified above.”
as §4, §2

[10] = system: ALOMY; assay: Pre-emergence herbicidal effect, greenhouse pot test; assay type: in vivo, Alopecurus myosuroides; conditions: scored visually after about 3 weeks vs untreated controls
Source text: as §3, with “plants.” for “plants. Tables 1a to 19c below show the effects/crop compatibilities of selected compounds of the general formula (I) on various harmful plants at an application rate corresponding to 20 to 320 g/ha, which were obtained by the trial procedure specified above.”
as §4, §2

[11] = system: SETVI; assay: as above; assay type: in vivo, Setaria viridis; conditions: scored visually after about 3 weeks vs untreated controls
Method in brief: (§5)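 Seeds sown in pots and covered with soil; WP- or EC-formulated compounds applied to the soil surface as aqueous suspension/emulsion with 0.5% additive at 600 l/ha water, 20 to 320 g/ha. Greenhouse growth; visual % effect vs untreated controls after about 3 weeks (100% = plants died, 0% = like control).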

[12] = system: POLCO; assay: as above; assay type: in vivo, Fallopia convolvulus; conditions: scored visually after about 3 weeks vs untreated controls
Source text: as §3, with “plants.” for “plants. Tables 1a to 19c below show the effects/crop compatibilities of selected compounds of the general formula (I) on various harmful plants at an application rate corresponding to 20 to 320 g/ha, which were obtained by the trial procedure specified above.”
as §4, §2

[13] = system: LOLRI; assay: as above; assay type: in vivo, Lolium rigidum; conditions: scored visually after about 3 weeks vs untreated controls
Source text: as §3, with “plants.” for “plants. Tables 1a to 19c below show the effects/crop compatibilities of selected compounds of the general formula (I) on various harmful plants at an application rate corresponding to 20 to 320 g/ha, which were obtained by the trial procedure specified above.”
as §4, §2

[14] = system: DIGSA; assay: as above; assay type: in vivo, Digitaria sanguinalis; conditions: scored visually after about 3 weeks vs untreated controls
Source text: as §3, with “plants.” for “plants. Tables 1a to 19c below show the effects/crop compatibilities of selected compounds of the general formula (I) on various harmful plants at an application rate corresponding to 20 to 320 g/ha, which were obtained by the trial procedure specified above.”
as §4, §2

[15] = system: AMARE; assay: as above; assay type: in vivo, Amaranthus retroflexus; conditions: scored visually after about 3 weeks vs untreated controls
Method in brief: as §5

[16] = system: MATIN; assay: as above; assay type: in vivo, Tripleurospermum inodorum; conditions: 320 g/ha, scored visually after about 3 weeks vs untreated controls
Source text: as §3, with “plants.” for “plants. Tables 1a to 19c below show the effects/crop compatibilities of selected compounds of the general formula (I) on various harmful plants at an application rate corresponding to 20 to 320 g/ha, which were obtained by the trial procedure specified above.”
as §4, §2

[17] = system: PHBPU; assay: as above; assay type: in vivo, Ipomoea purpurea; conditions: 320 g/ha, scored visually after about 3 weeks vs untreated controls
Source text: as §3, with “plants.” for “plants. Tables 1a to 19c below show the effects/crop compatibilities of selected compounds of the general formula (I) on various harmful plants at an application rate corresponding to 20 to 320 g/ha, which were obtained by the trial procedure specified above.”
as §4, §2

[18] = system: ABUTH; assay: as above; assay type: in vivo, Abutilon theophrasti; conditions: scored visually after about 3 weeks vs untreated controls
Source text: as §3, with “plants.” for “plants. Tables 1a to 19c below show the effects/crop compatibilities of selected compounds of the general formula (I) on various harmful plants at an application rate corresponding to 20 to 320 g/ha, which were obtained by the trial procedure specified above.”
as §4, §2

Structure (SMILES) | percent crop injury (phytotoxicity) to wheat, post-emergence at 20 g/ha [1] [%] | plant injury at 20 g/ha [2] [%] | plant injury at 80 g/ha [2] [%] | plant injury at 320 g/ha [2] [%] | Post-emergence effect at 320 g/ha against BRSNW in % [3] [%] | Pre-emergence effect at 320 g/ha against KCHSC in % [5] [%] | Pre-emergence effect at 320 g/ha against VIOTR in % [7] [%] | Pre-emergence effect at 320 g/ha against AVEFA in % [8] [%] | Pre-emergence effect at 20 g/ha against ZEAMX in % [9] [%] | Pre-emergence effect at 320 g/ha against ALOMY in % [10] [%] | Pre-emergence effect at 320 g/ha against LOLRI in % [13] [%] | Pre-emergence effect at 320 g/ha against DIGSA in % [14] [%] | Pre-emergence effect at 80 g/ha against AMARE in % [15] [%] | also measured
COC(Oc1nn(-c2ncccc2F)c(-c2ccc(F)nc2)c1Br)C(=O)O (stereo not drawn) [Example I-45] | 0 | 0 | 0 | 0 | 0 |  |  |  |  |  |  |  |  | 
CCOC(Oc1nn(-c2ccccc2F)c(-c2ccc(F)nc2)c1Br)C(=O)O (racemic) [Example I-51, (2RS)-{[4-Bromo-1-(2-fluorophenyl)-5-(6-fluoropyridin-3-yl)-1H-pyrazol-3-yl]oxy}(ethoxy)acetic acid] | 0 | 0 | 0 | 0 | 0 |  |  |  |  |  |  |  |  | pest or weed control at 320 g/ha [4]: 80%
COC(=O)C(OC)Oc1nn(-c2ccccc2F)c(-c2ccc(F)nc2)c1I (stereo not drawn) [Example I-49] |  |  |  |  |  | 100 | 90 | 90 | 0 | 90 | 90 | 100 | 90 | pest or weed control at 320 g/ha ([6]; Echinochloa crus-galli, 504 h, 320 g/ha, read-out: Pre-emergence effect at 320 g/ha against ECHCG in %): 90%; Pre-emergence effect at 80 g/ha against ZEAMX in % ([9]; 80 g/ha): 0%; pest or weed control at 320 g/ha ([11]; Setaria viridis, 504 h, 320 g/ha, read-out: Pre-emergence effect at 320 g/ha against SETVI in %): 100%; pest or weed control at 320 g/ha ([12]; Fallopia convolvulus, 504 h, 320 g/ha, read-out: Pre-emergence effect at 320 g/ha against POLCO in %): 80%; pest or weed control at 320 g/ha ([15]; Amaranthus retroflexus, 504 h, 320 g/ha, read-out: Pre-emergence effect at 320 g/ha against AMARE in %): 100%; pest or weed control at 320 g/ha ([16]; Tripleurospermum inodorum, 504 h, read-out: Pre-emergence effect at 320 g/ha against MATIN in %): 90%
CCOC(Oc1nn(-c2ccccc2F)c(-c2ccc(F)nc2)c1Br)C(=O)O (single isomer, unassigned) [Example I-65, (2R*)-{[4-Bromo-1-(2-fluorophenyl)-5-(6-fluoropyridin-3-yl)-1H-pyrazol-3-yl]oxy}(ethoxy)acetic acid] | 0 | 0 | 0 | 0 | 0 |  |  |  |  |  |  |  |  | 
COC(=O)CCOC(=O)C(OC)Oc1nn(-c2ncccc2F)c(-c2cncc(F)c2)c1C1CC1 (single isomer, unassigned) [Example I-76] |  |  |  |  |  | 100 | 100 | 100 | 20 | 90 | 100 | 90 | 100 | Pre-emergence effect at 20 g/ha against KCHSC in % ([5]; 20 g/ha): 90%; Pre-emergence effect at 80 g/ha against KCHSC in % ([5]; 80 g/ha): 90%; Pre-emergence effect at 80 g/ha against ECHCG in % ([6]; 80 g/ha): 90%; Pre-emergence effect at 320 g/ha against ECHCG in % ([6]; 320 g/ha): 100%; Pre-emergence effect at 320 g/ha against PHBPU in % [17]: 90%; Pre-emergence effect at 80 g/ha against VIOTR in % ([7]; 80 g/ha): 100%; Pre-emergence effect at 80 g/ha against AVEFA in % ([8]; 80 g/ha): 90%; Pre-emergence effect at 80 g/ha against ABUTH in % ([18]; 80 g/ha): 90%; Pre-emergence effect at 320 g/ha against ABUTH in % ([18]; 320 g/ha): 90%; Pre-emergence effect at 80 g/ha against ALOMY in % ([10]; 80 g/ha): 90%; Pre-emergence effect at 80 g/ha against SETVI in % ([11]; 80 g/ha): 90%; Pre-emergence effect at 320 g/ha against SETVI in % ([11]; 320 g/ha): 100%; Pre-emergence effect at 80 g/ha against POLCO in % ([12]; 80 g/ha): 90%; Pre-emergence effect at 320 g/ha against POLCO in % ([12]; 320 g/ha): 90%; Pre-emergence effect at 80 g/ha against LOLRI in % ([13]; 80 g/ha): 90%; Pre-emergence effect at 80 g/ha against DIGSA in % ([14]; 80 g/ha): 80%; Pre-emergence effect at 20 g/ha against AMARE in % ([15]; 20 g/ha): 80%; Pre-emergence effect at 320 g/ha against AMARE in % ([15]; 320 g/ha): 100%; Pre-emergence effect at 320 g/ha against MATIN in % [16]: 90%
